Data taken from publication PMC6017792, “Hydrazone Derivatives Enhance Antileishmanial Activity of Thiochroman-4-ones” (Molecules : A Journal of Synthetic Chemistry and Natural …, 2017).

Legend:
[1] = test system: intracellular amastigotes of L. panamensis; test: in vitro antileishmanial activity on intracellular amastigotes (EGFP strain in U-937 cells, flow cytometry); assay type: cell-based, Leishmania panamensis; conditions: for IS (Index of Selectivity = LC50/EC50): LC50 (U-937) / EC50 (L. panamensis amastigotes); for EC50: intracellular amastigotes of L. panamensis (MHOM/CO/87/UA140-EGFP) in U-937 cells, 72 h, mean ± SD; for antileishmanial activity (in words): 10-50 µM moderately active, > 50 µM low activity
Experimental: Antileishmanial activity of compounds was determined according to the ability to reduce the infection by L. panamensis parasites, a Leishmania species that is highly prevalent in the Central America and Colombia as causative agent of C.L. For this, the antileishmanial activity was tested on intracellular amastigotes of L. panamensis transfected with the green fluorescent protein gene (MHOM/CO/87/UA140-EGFP strain). […] Plates were incubated at 34 °C and 5% CO2 for 3 h and then cells were washed twice with PBS to eliminate not internalized parasites. […] Cells were washed two times employing PBS, as previously, and after the last wash, the supernatant was discarded and cells were suspended in 500 μL of PBS.
Cells were analyzed by flow cytometry employing a flow cytometer (Cytomics FC 500MPL, Beckman Coulter. Pasadena, CA, USA) reading at 488 nm (exciting) and 525 nm (emitting) over an argon laser and counting 10,000 events. Infected cells were determined according the events for green fluorescence (parasites). All determinations for each compound and standard drug were carried out by triplicate, in two experiments. Infected cells exposed to amphotericin B were used as control for antileishmanial activity (positive control) while infected cells incubated in absence of any compound or drug were used as control for infection (negative control). Nonspecific fluorescence was corrected by subtracting fluorescence of unstained cells. Determinations were done by triplicate in at least two independent experiments.
Antileishmanial activity was determined according reduction of percentage of fluorescent parasites determined according to the median fluorescence intensity (MFI), obtained for each experimental condition by cytometry. The parasite values for each concentration of compound were calculated by Equation (3), where the % of parasites in the control well, corresponds to 100% of parasites:% parasites = (MFI exposed parasites/MFI unexposed parasites) × 100(3)
Results of antileishmanial activities were expressed as the EC50 calculated by Probit method. The compound were classified according to EC50 values using a scale defined by us, based on the hit criteria proposed by Katsuno et al.[25].

[2] = in vitro; conditions: human
Experimental: (§1) Cells exposed to compounds or standard drug were incubated 72 h at 37 °C and 5% of CO2. Cytotoxic activity of each compound was determined according to the effect on the cell viability by the MTT microenzymatic method in which 3-(4,5-dimethylthiazol-2-yl)-2,5-diphenyltetrazolium bromide is reduced to a purple product named formazan by mitochondrial enzyme succinate dehydrogenase. Thus, 10 μL/well of MTT solution (5 mg/mL) were added to each well of exposed and unexposed cells, and plates were incubated at 37 °C, 5% CO2 during 3 h. The reaction was stopped by adding 100 μL/well of isopropanol with 50% and 10% of sodium dodecyl sulfate. The concentration of formazan was determined spectrophotometrically at 570 nm (Varioskan Flash Multimode Reader, Thermo Scientific, Waltham, MA, USA) and intensity of color (absorbance) was registered as O.D. Cells exposed to amphotericin B were used as control for toxicity (positive control) while cell incubated in absence of any compound or drug were used as control for viability (negative control). Non-specific absorbance was corrected by subtracting absorbance (O.D.) of the blank. Determinations were done by triplicate in at least two independent experiments.
(§2) Cytotoxicity was determined according to viability and mortality percentages obtained for each experimental condition (synthetized compounds, amphotericin B and culture medium). […] Initially, viability percentages were calculated by Equation (1), where the O.D. of control well, corresponds to 100% of viability:% viability = (O.D. exposed cells/O.D. unexposed cells) × 100(1)

[3] = test system: human monocytes (U-937 ATCC CRL-1593.2); test: in vitro; conditions: for CC50: read-out: LC50, U-937 cells, 72 h, MTT, mean ± SD
Experimental: as §1, §2

| SMILES | IS (Index of Selectivity = LC50/EC50) [1] | EC50 ([1]; Leishmania panamensis) | CC50 at 72 h [2] | antileishmanial activity (in words) ([1]; […]) | EC50 [1] | CC50 [3] | antileishmanial activity (in words) ([1]; scale b56: EC50 < 10 µM highly active) | cytotoxic activity (in words) ([3]; scale b53: LC50 < 100 µM high toxicity, 100-200 µM moderate, > 200 µM potential nontoxicity) |
| --- | --- | --- | --- | --- | --- | --- | --- | --- |
| O=C(N/N=C1\CCSc2ccc(F)cc21)c1ccncc1 [Compound 11, (E)-N′-(6-Fluorothiochroman-4-ylidene)isonicotinohydrazide] | >16.6 | 39.9 ± 5.3 µM | > 664 µM | – | – | – | – | – |
| CC1C/C(=N\NC(=O)c2ccc(N)cc2)c2ccccc2S1 (stereo not shown) [Compound 15, (E)-4-Amino-N′-(2-methylthiochroman-4-ylidene)benzohydrazide] | 1.1 | 91.8 ± 13.5 µM | 102 ± 15.1 µM | – | – | – | – | – |
| C[C@@H]1[C@H](O)[C@@H](C)/C=C/C=C/C=C/C=C/C=C/C=C/C=C/[C@H](O[C@@H]2O[C@H](C)[C@@H](O)[C@H](N)[C@@H]2O)C[C@@H]2O[C@](O)(C[C@@H](O)C[C@@H](O)[C@H](O)CC[C@@H](O)C[C@@H](O)CC(=O)O[C@H]1C)C[C@H](O)[C@H]2C(=O)O [Amphotericin B, reference compound] | – | 0.32 µM | 39.6 ± 8.7 µM | – | – | – | – | – |
| NNC(N)=S [thiosemicarbazide, reference compound] | – | – | – | inactive | > 267 µM | > 1000 µM | – | – |
| NC(=O)N/N=C1\CC(c2ccccc2)Sc2ccccc21 (stereo not shown) [Compound 19, (E)-2-(2-Phenylthiochroman-4-ylidene)hydrazinecarboxamide] | 18.6 | 5.4 ± 1 µM | 100 ± 19.8 µM | – | – | – | – | – |
| NC(=O)N/N=C1\CCSc2ccccc21 [Compound 8, (E)-2-(Thiochroman-4-ylidene)hydrazinecarboxamide] | 7.0 | 91.5 ± 33.4 µM | 637 ± 37.9 µM | – | – | – | – | – |
| O=C(N/N=C1\CCSc2ccccc21)c1ccccc1 [Compound 6, (E)-N′-(Thiochroman-4-ylidene)benzohydrazide] | 3.9 | 63.7 ± 9.2 µM | 248 ± 49.6 µM | – | – | – | – | – |
| O=C1CCSc2ccc(F)cc21 [Compound 2, 6-Fluorothiochroman-4-one] | <6.5 | > 110 µM | > 706 µM | – | – | – | – | – |
| NC(=S)N/N=C1\CC(c2ccccc2)Sc2ccccc21 (stereo not shown) [Compound 20, (E)-2-(2-Phenylthiochroman-4-ylidene)hydrazinecarbothioamide] | 9.8 | 5.1 ± 1.3 µM | 50.1 ± 4.1 µM | – | – | – | – | – |
| O=C1CC(c2ccccc2)Sc2ccccc21 (stereo not shown) [Compound 5, 2-Phenylthiochroman-4-one] | >0.9 | 44.1 ± 0.9 µM | > 41.6 µM | – | – | – | moderate antileishmanial activity | high cytotoxic activity |
| O=C1CCSc2ccccc21 [Compound 1, thiocroman-4-one] | – | – | – | – | 344 ± 75.6 µM | > 1000 µM | – | – |
| CC1C/C(=N\NC(=O)c2ccccc2)c2cc(F)ccc2S1 (stereo not shown) [Compound 16, (E)-N′-(6-Fluoro-2-methylthiochroman-4-ylidene)benzohydrazide] | – | 43.9 ± 4.5 µM | > 636 µM | – | – | – | – | – |
| CC1C/C(=N\NC(=O)c2ccc(N)cc2)c2cc(F)ccc2S1 (stereo not shown) [Compound 18, (E)-4-Amino-N′-(6-fluoro-2-methylthiochroman-4-ylidene)benzohydrazide] | 0.2 | 161 ± 2.4 µM | 31 ± 7 µM | – | – | – | – | – |
| O=C(N/N=C1\CC(c2ccccc2)Sc2ccccc21)c1ccncc1 (stereo not shown) [Compound 22, (E)-N′-(2-Phenylthiochroman-4-ylidene)isonicotinohydrazide] | >33.9 | 16.4 ± 3.6 µM | > 556 µM | – | – | – | – | – |
| CC1C/C(=N\NC(=O)c2ccncc2)c2cc(F)ccc2S1 (stereo not shown) [Compound 17, (E)-N′-(6-Fluoro-2-methylthiochroman-4-ylidene)isonicotinohydrazide] | 2.1 | 98.9 ± 19.3 µM | 203 ± 25.4 µM | – | – | – | – | – |
| CC1C/C(=N\NC(=O)c2ccccc2)c2ccccc2S1 (stereo not shown) [Compound 13, (E)-N′-(2-Methylthiochroman-4-ylidene)benzohydrazide] | 3.9 | 38.1 ± 16.2 µM | 150 ± 24.3 µM | – | – | – | – | – |
| Nc1ccc(C(=O)N/N=C2\CCSc3ccc(F)cc32)cc1 [Compound 12, (E)-4-Amino-N′-(6-fluorothiochroman-4-ylidene)benzohydrazide] | >6.6 | 95.5 ± 6.9 µM | > 634 µM | – | – | – | – | – |
| O=C(N/N=C1\CCSc2ccc(F)cc21)c1ccccc1 [Compound 10, (E)-N′-(6-Fluorothiochroman-4-ylidene)benzohydrazide] | >17.6 | 37.3 ± 3.3 µM | > 666 µM | – | – | – | – | – |
| O=C(N/N=C1\CCSc2ccccc21)c1ccncc1 [Compound 7, (E)-N′-(Thiochroman-4-ylidene)isonicotinohydrazide] | >12.4 | 56.8 ± 4.54 µM | 706 µM | – | – | – | – | – |
| CC1CC(=O)c2cc(F)ccc2S1 (stereo not shown) [Compound 4, 6-Fluoro-2-methylthiochroman-4-one] | 1.4 | 422 ± 9.2 µM | 579 ± 59.1 µM | – | – | – | – | – |
| CC1CC(=O)c2ccccc2S1 (stereo not shown) [Compound 3, 2-Methylthiochroman-4-one] | 1.4 | 445 ± 7.3 µM | 604 ± 86.4 µM | – | – | – | – | – |
| CC1C/C(=N\NC(=O)c2ccncc2)c2ccccc2S1 (stereo not shown) [Compound 14, (E)-N′-(2-Methylthiochroman-4-ylidene)isonicotinohydrazide] | >11.9 | 56.6 ± 0.7 µM | > 672 µM | – | – | – | – | – |
| O=C(N/N=C1\CC(c2ccccc2)Sc2ccccc21)c1ccccc1 (stereo not shown) [Compound 21, (E)-N′-(2-Phenylthiochroman-4-ylidene)benzohydrazide] | – | 28.5 ± 2.8 µM | 529 ± 7 µM | – | – | – | – | – |
